Tested on: T1, RsD2HGDH
T1 construct: gene D2HGDH
Type: biochemical, Ralstonia solanacearum
Settings: free enzyme; 100 µM DCIP, 200 µM PMS, 50 mM PB pH 7.0 (assay of b15), 25 °C

Q: With `O=C(O)CC[C@@H](O)C(=O)O` [D2HG] as the molecule, how does the Km read?
A: The Km was 433 µM.
